Laboratory results published in ChEMBL document CHEMBL1201862, “PubChem BioAssay data set” (2004).
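Cells were grown in 96-well plates and exposed to each compound for 48 hours at five concentrations; endpoints were interpolated linearly between bracketing concentrations, or set to the highest concentration if not reached. Abbreviation: GI50, concentration required for 50% inhibition of growth.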 Activity calls are given as the source filed them. Rule as the data show it: active = GI50 up to about 1.1 µM and inactive = higher.

What was measured:
Assay in all cases: NCI-60 cell line screen, 48 h
[1] = system: SNB-19
[2] = system: IGROV-1
[3] = system: OVCAR-3
[4] = system: ACHN
[5] = system: SK-MEL-28
[6] = system: UO-31
[7] = system: HOP-92
[8] = system: OVCAR-8
[9] = system: EKVX
[10] = system: SN12C
[11] = system: HT-29
[12] = system: HOP-62
[13] = system: SF-295
[14] = system: OVCAR-4
[15] = system: K562
[16] = system: HCT-15
[17] = system: SR
[18] = system: NCI-H522

## CC1=CC2CC(C)C1(C)CCc1ccoc12 (stereo not given)
[1]
  GI50: > 100 µM (inactive)
[2]
  GI50: > 100 µM (inactive)
[3]
  GI50: > 100 µM (inactive)
[4]
  GI50: > 100 µM (inactive)
[5]
  GI50: > 100 µM (inactive)
[6]
  GI50: > 100 µM (inactive)
[7]
  GI50: > 100 µM (inactive)
[8]
  GI50: > 100 µM (inactive)
[9]
  GI50: > 100 µM (inactive)
[10]
  GI50: > 100 µM (inactive)
[11]
  GI50: > 100 µM (inactive)
[12]
  GI50: > 100 µM (inactive)
[13]
  GI50: > 100 µM (inactive)
[14]
  GI50: > 100 µM (inactive)
[15]
  GI50: > 100 µM (inactive)
[16]
  GI50: > 100 µM
[17]
  GI50: > 100 µM (inactive)

## O=C(CC1(O)C(=O)Nc2ccc(Br)cc21)c1cccc([N+](=O)[O-])c1 (stereo not given)
[1]
  GI50: 61.5 µM (inactive)
[3]
  GI50: 38.7 µM (inactive)
[4]
  GI50: 60.5 µM (inactive)
[5]
  GI50: 35.8 µM (inactive)
[6]
  GI50: 64.9 µM (inactive)
[7]
  GI50: 20.8 µM (inactive)
[8]
  GI50: 35.5 µM (inactive)
[9]
  GI50: 40.7 µM (inactive)
[10]
  GI50: > 100 µM (inactive)
[11]
  GI50: 32.7 µM (inactive)
[12]
  GI50: 49.5 µM (inactive)
[13]
  GI50: 59 µM (inactive)
[14]
  GI50: 23.1 µM (inactive)
[15]
  GI50: 20.6 µM (inactive)
[16]
  GI50: 56 µM
[18]
  GI50: 22.2 µM (inactive)

## O=C1NC2CCC(C2)C1c1ccccc1 (stereo not given)
[1]
  GI50: > 100 µM (inactive)
[2]
  GI50: > 100 µM (inactive)
[3]
  GI50: > 100 µM (inactive)
[4]
  GI50: > 100 µM (inactive)
[5]
  GI50: > 100 µM (inactive)
[6]
  GI50: > 100 µM (inactive)
[8]
  GI50: > 100 µM (inactive)
[9]
  GI50: > 100 µM (inactive)
[10]
  GI50: > 100 µM (inactive)
[11]
  GI50: > 100 µM (inactive)
[13]
  GI50: > 100 µM (inactive)
[14]
  GI50: > 100 µM (inactive)
[15]
  GI50: > 100 µM (inactive)
[17]
  GI50: > 100 µM (inactive)

## COC(=O)c1cc(CC(C)C)c2c(c1)[nH]c1ccccc12
[1]
  GI50: > 100 µM (inactive)
[2]
  GI50: > 100 µM (inactive)
[3]
  GI50: > 100 µM (inactive)
[4]
  GI50: > 100 µM (inactive)
[5]
  GI50: > 100 µM (inactive)
[6]
  GI50: > 100 µM (inactive)
[7]
  GI50: 43.5 µM (inactive)
[8]
  GI50: > 100 µM (inactive)
[9]
  GI50: > 100 µM (inactive)
[10]
  GI50: > 100 µM (inactive)
[11]
  GI50: > 100 µM (inactive)
[13]
  GI50: > 100 µM (inactive)
[14]
  GI50: > 100 µM (inactive)
[15]
  GI50: 15.9 µM (inactive)
[16]
  GI50: 52.1 µM
[18]
  GI50: 68.2 µM (inactive)

## CC1=C(O)C(=O)c2cn(C)cc2C1=O
[1]
  GI50: > 100 µM (inactive)
[2]
  GI50: > 100 µM (inactive)
[3]
  GI50: > 100 µM (inactive)
[4]
  GI50: > 100 µM (inactive)
[5]
  GI50: > 100 µM (inactive)
[6]
  GI50: > 100 µM (inactive)
[7]
  GI50: > 100 µM (inactive)
[8]
  GI50: > 100 µM (inactive)
[9]
  GI50: > 100 µM (inactive)
[10]
  GI50: > 100 µM (inactive)
[11]
  GI50: > 100 µM (inactive)
[12]
  GI50: > 100 µM (inactive)
[13]
  GI50: > 100 µM (inactive)
[14]
  GI50: > 100 µM (inactive)
[15]
  GI50: > 100 µM (inactive)
[16]
  GI50: > 100 µM
[17]
  GI50: > 100 µM (inactive)

## CCC12CCC(O)C1N(C)CCC2Sc1ccccc1 (stereo not given)
[1]
  GI50: > 100 µM (inactive)
[2]
  GI50: > 100 µM (inactive)
[3]
  GI50: > 100 µM (inactive)
[4]
  GI50: > 100 µM (inactive)
[5]
  GI50: 75.3 µM (inactive)
[6]
  GI50: 28.8 µM (inactive)
[7]
  GI50: 28.6 µM (inactive)
[8]
  GI50: > 100 µM (inactive)
[9]
  GI50: > 100 µM (inactive)
[10]
  GI50: > 100 µM (inactive)
[11]
  GI50: 34.8 µM (inactive)
[12]
  GI50: > 100 µM (inactive)
[13]
  GI50: 76.2 µM (inactive)
[14]
  GI50: > 100 µM (inactive)
[15]
  GI50: 37.4 µM (inactive)
[16]
  GI50: > 100 µM
[18]
  GI50: > 100 µM (inactive)

## O=C(O)C1c2ccccc2C(C(=O)O)c2ccccc21 (stereo not given)
[1]
  GI50: > 100 µM (inactive)
[2]
  GI50: > 100 µM (inactive)
[4]
  GI50: > 100 µM (inactive)
[6]
  GI50: > 100 µM (inactive)
[7]
  GI50: > 100 µM (inactive)
[8]
  GI50: > 100 µM (inactive)
[10]
  GI50: > 100 µM (inactive)
[11]
  GI50: > 100 µM (inactive)
[12]
  GI50: > 100 µM (inactive)
[13]
  GI50: > 100 µM (inactive)
[14]
  GI50: > 100 µM (inactive)
[15]
  GI50: > 100 µM (inactive)
[16]
  GI50: > 100 µM
[18]
  GI50: > 100 µM (inactive)
[17]
  GI50: > 100 µM (inactive)

## O=C(c1cc2ccccc2[nH]1)C(O)(c1cc2ccccc2[nH]1)c1cc2ccccc2[nH]1
[1]
  GI50: > 246 µM (inactive)
[2]
  GI50: > 246 µM (inactive)
[3]
  GI50: 20 µM (inactive)
[4]
  GI50: > 246 µM (inactive)
[5]
  GI50: > 246 µM (inactive)
[7]
  GI50: > 246 µM (inactive)
[8]
  GI50: > 246 µM (inactive)
[9]
  GI50: > 246 µM (inactive)
[10]
  GI50: > 246 µM (inactive)
[11]
  GI50: > 246 µM (inactive)
[12]
  GI50: > 246 µM (inactive)
[13]
  GI50: 154 µM (inactive)
[15]
  GI50: > 246 µM (inactive)
[16]
  GI50: > 246 µM
[18]
  GI50: > 246 µM (inactive)
[17]
  GI50: > 246 µM (inactive)

## CNc1ccc2ncccc2c1[N+](=O)[O-]
[1]
  GI50: > 100 µM (inactive)
[2]
  GI50: > 100 µM (inactive)
[3]
  GI50: > 100 µM (inactive)
[4]
  GI50: > 100 µM (inactive)
[5]
  GI50: > 100 µM (inactive)
[6]
  GI50: > 100 µM (inactive)
[7]
  GI50: > 100 µM (inactive)
[8]
  GI50: > 100 µM (inactive)
[9]
  GI50: > 100 µM (inactive)
[10]
  GI50: > 100 µM (inactive)
[11]
  GI50: > 100 µM (inactive)
[12]
  GI50: > 100 µM (inactive)
[13]
  GI50: > 100 µM (inactive)
[14]
  GI50: > 100 µM (inactive)
[15]
  GI50: > 100 µM (inactive)
[16]
  GI50: > 100 µM
[17]
  GI50: > 100 µM (inactive)
